The assay addresses Luciferin 4-monooxygenase (Photinus pyralis) (UniProt P08659). The experiment in a line: firefly luciferase activators or modifiers, dose response, counter-screen for NLG project, biochemical, CellTiter-Glo luminescence, dry powder samples (AID 720562). The settings on record: purified luciferase, 1 h. (In general: The purpose of a counterscreen is to sort out artefacts and off-target activity.)

Calls of active or inactive are those of the source.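 The calls were made as follows: active = fitted curve rises past 40% activation at or below the highest valid tested dose; inconclusive = flat fit between 30% and 70%, or poor curve fit; inactive = the rest, including signal falling instead of rising.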

Luciferin 4-monooxygenase (Photinus pyralis), sequence (P08659 whole entry, looked up): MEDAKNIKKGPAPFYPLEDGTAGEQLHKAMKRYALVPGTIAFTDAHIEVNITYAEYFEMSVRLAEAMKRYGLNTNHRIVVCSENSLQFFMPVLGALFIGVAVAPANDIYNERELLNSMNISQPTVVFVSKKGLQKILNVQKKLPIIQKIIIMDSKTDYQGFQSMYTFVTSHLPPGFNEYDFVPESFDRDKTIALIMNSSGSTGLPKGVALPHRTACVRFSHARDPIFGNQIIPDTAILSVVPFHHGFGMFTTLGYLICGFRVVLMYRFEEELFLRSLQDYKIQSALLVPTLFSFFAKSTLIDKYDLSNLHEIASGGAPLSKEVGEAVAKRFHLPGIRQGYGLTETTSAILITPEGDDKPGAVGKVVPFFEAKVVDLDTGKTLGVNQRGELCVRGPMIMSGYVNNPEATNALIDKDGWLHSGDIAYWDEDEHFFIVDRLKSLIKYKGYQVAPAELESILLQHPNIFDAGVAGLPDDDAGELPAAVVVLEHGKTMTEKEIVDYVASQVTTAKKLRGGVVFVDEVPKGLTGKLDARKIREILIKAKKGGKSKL

Take `Cc1ccc(/C=N/NC(=O)C2COc3ccccc3O2)s1` (configuration not stated): the AC40 was > 30 µM (inactive).

On to `CCCCOc1ccccc1C1CC(=O)NC2=C1C(=O)CCC2` (configuration not stated), for which the luminescence change, positive = activation (at 30 µM (top of the series)) is -27% (inactive).

For `Nc1nc(=S)c2ncn([C@@H]3O[C@H](CO)[C@@H](O)[C@H]3O)c2[nH]1`, for the setting “at 30 µM (top of the series)”, the luminescence change, positive = activation was 97.3% (inactive).

Take `Cc1cc(C)nc(/N=C(\N)Nc2ccc(OCc3ccccc3)cc2)n1`: where the note is “at 30 µM (top of the series)”, the luminescence change, positive = activation is 36.9% (inactive).

On to `COc1ccc(CSc2nnc(-c3ccccc3)o2)cc1`, for which the AC40 is > 30 µM (inactive).

Consider `O=C1CCNc2cc3ccccc3cc21`, for which the AC40 is 28.2 µM.

Consider `CCOC(=O)c1ccc(Oc2cc(C)nc(SC)n2)cc1`, for which, for the setting “at 30 µM (top of the series)”, the luminescence change, positive = activation was 16.2% (inactive).

In the case of `Cc1cnc(NC(=O)c2cc(S(=O)(=O)N(C)C)ccc2N2CCCC2)s1`, the luminescence change, positive = activation (at 30 µM (top of the series)) was 8.11% (inactive).

Turning to `Brc1ccc(CSc2nnc(-c3ccccc3)o2)cc1`, the luminescence change, positive = activation (at 30 µM (top of the series)) was 21.6% (inactive).

Consider `CCC1=Nc2cc(C(=O)NCCCOC)ccc2Sc2ccccc21`, for which the luminescence change, positive = activation (at 30 µM (top of the series)) was -11.5% (inactive).

With `Cc1cc(C)cc(C(=O)N2CC(=O)Nc3ccccc32)c1`, the luminescence change, positive = activation (at 30 µM (top of the series)) is -9.46% (inactive).

Turning to `COc1ccccc1-c1nnc(SCc2ccccc2)o1`, the luminescence change, positive = activation (at 30 µM (top of the series)) is -10.8% (inactive).

Take `CCOC(=O)COc1cccc2c(=O)n(CC(=O)NCc3ccccc3)ccc12`: under “at 30 µM (top of the series)”, the luminescence change, positive = activation was -4.73% (inactive).

With `C/C(=N\NC(=O)c1c([N+](=O)[O-])c(C)nn1C)c1ccc(NC(=O)C2CCCC2)cc1`, for the setting “at 30 µM (top of the series)”, the luminescence change, positive = activation was -2.7% (inactive).

As to `COC(=O)c1cn(C(=O)c2ccc(OC)cc2)c2ccccc12`, the AC40 is 12.5 µM.

`COc1ccc(NC(=O)C(=O)c2cn(CC(=O)N3CCCC3)c3ccccc23)cc1`: under “at 30 µM (top of the series)”, the luminescence change, positive = activation is -20.3% (inactive).

For `CCCOC(=O)c1[nH]c2c(c1C)C(=O)CC(c1cccs1)C2` (configuration not stated), the AC40 was 10 µM.

As for `COc1cc(C(=O)NCCOc2cc(C)cc(C)c2)cc(OC)c1OC`, the AC40 is 24.5 µM.

On to `CCOc1ccc(S(=O)(=O)NCc2ccccn2)cc1NC(=O)c1ccccc1F`, for which the luminescence change, positive = activation (at 7.5 µM (top of the series)) was -35.8% (inactive).

In the case of `CC(=O)N[C@H]1[C@@H](O[C@@H]2OC(C[C@@H](O)C3O[C@@H](n4ccc(=O)[nH]c4=O)[C@H](O)[C@@H]3O)[C@H](O)[C@H](O)[C@H]2NC(=O)/C=C/CCCCCCCCCCC(C)C)O[C@H](CO)[C@@H](O)[C@@H]1O` (some centres not stated), the AC40 is 13.1 µM.

In the case of `COc1ccc(-c2nnc(SCc3ccccc3)o2)cc1`, the AC40 is > 30 µM (inactive).

Consider `CC(=O)c1ccc(Oc2cc(C)nc(-n3nc(C)cc3C)n2)cc1`, for which the luminescence change, positive = activation (at 30 µM (top of the series)) is -10.8% (inactive).

On to `CCn1c2ccccc2c2cc(NC(=O)c3cc(OC)c(OC)c(OC)c3)ccc21`, for which the luminescence change, positive = activation (at 7.5 µM (top of the series)) is -35.8% (inactive).

Turning to `c1ccc(CSc2nnc(-c3ccccc3)o2)cc1`, the AC40 is 20.9 µM.

`Cc1cc(NC(=O)CSc2nc(-c3ccco3)cc(C(F)(F)F)n2)no1`: for the setting “at 30 µM (top of the series)”, the luminescence change, positive = activation was -25.7% (inactive).

As to `COc1ccccc1OCC(=O)NNC(=O)c1ccoc1C`, the luminescence change, positive = activation (at 30 µM (top of the series)) was -17.6% (inactive).

Take `CCOc1ccc(NC(=O)c2cc(OC)nc3ccccc23)cc1`: where the note is “at 30 µM (top of the series)”, the luminescence change, positive = activation was -0.676% (inactive).

For the compound `CCCNS(=O)(=O)c1cccc(C(=O)OCc2cc(=O)oc3cc(OC)ccc23)c1`, the AC40 is 6.81 µM.

In the case of `CCN(CC)CCCNc1nc2cc(OC)c(OC)cc2c2nc(-c3ccccc3)nn12`, the luminescence change, positive = activation (at 30 µM (top of the series)) is -10.1% (inactive).

`Cc1[nH][nH]c(=O)c1C(c1ccc(-c2ccc(Cl)c(Cl)c2)o1)c1c(C)[nH][nH]c1=O`: the luminescence change, positive = activation (at 30 µM (top of the series)) is 7.43% (inactive).

For the compound `Cc1ccc(Oc2ccc(S(=O)(=O)N3CCOCC3)cc2C(N)=O)c(-n2nc3ccccc3n2)c1`, for the setting “at 30 µM (top of the series)”, the luminescence change, positive = activation is -22.3% (inactive).

With `CC(=O)N1CCC(=O)c2cc3ccccc3cc21`, the AC40 is 4.65 µM.

Take `Cc1ccc(C(=O)c2cc([N+](=O)[O-])ccc2N2CCOCC2)cc1C`: for the setting “at 30 µM (top of the series)”, the luminescence change, positive = activation was 19.8% (inactive).

For `O=C(N/N=C/c1ccc(Cl)cc1)c1sccc1OCc1ccc(F)cc1`, the AC40 is > 30 µM (inactive).

As for `COc1cc(-c2nnc(SCC3(c4ccc(Br)cc4)OCCO3)o2)cc(OC)c1OC`, the AC40 is > 30 µM (inactive).

For the compound `COc1cccc(N2CCN(C(=O)c3ccc(CS(=O)c4ccc(C)cc4)o3)CC2)c1` (configuration not stated), where the note is “at 30 µM (top of the series)”, the luminescence change, positive = activation is 8.11% (inactive).

Turning to `Cc1cccc(C)c1OCCNC(=O)C(=O)NCc1ccco1`, under “at 30 µM (top of the series)”, the luminescence change, positive = activation is -39.9% (inactive).

As for `O=C(Cc1ccccc1)c1nnc(-c2ccccc2)o1`, the AC40 was > 30 µM (inactive).

Take `CC(=O)c1cccc(NC(=O)CSc2ncc(C(=O)Nc3ccccc3)c(=O)n2C)c1`: the luminescence change, positive = activation (at 30 µM (top of the series)) is -7.43% (inactive).

Consider `CCN(CC)CCC(=O)Nc1cccc2c1C(=O)c1ccccc1C2=O`, for which the AC40 is 14.7 µM.

As to `Cc1cc(=O)[nH]c(N/N=C/c2cc(C)n(CC(F)(F)F)c2C)n1`, where the note is “at 30 µM (top of the series)”, the luminescence change, positive = activation is 36% (inactive).

Take `Cc1ccc(CCC(=O)Nc2ncc(Cc3cc(Cl)ccc3Cl)s2)o1`: the luminescence change, positive = activation (at 30 µM (top of the series)) is -24.3% (inactive).

With `CCN(CC)CCOc1ccc2c(c1)C(=NNC(=O)c1ccccn1)c1cc(OCCN(CC)CC)ccc1-2`, the AC40 is > 30 µM (inactive).

`COc1ccccc1CSc1nnc(-c2ccccc2)o1`: the luminescence change, positive = activation (at 30 µM (top of the series)) was 19.8% (inactive).

With `O=C1CCN(Cc2ccccc2)c2cc3ccccc3cc21`, the luminescence change, positive = activation (at 7.5 µM (top of the series)) was 10.8% (inactive).

Take `COc1cc(Nc2c3c(nc4ccccc24)CCCC3)cc(OC)c1OC`: the luminescence change, positive = activation (at 30 µM (top of the series)) was -14.9% (inactive).

With `COc1ccc2c(COC(=O)c3cccc(S(=O)(=O)NCC(C)C)c3)cc(=O)oc2c1`, the AC40 was 1.49 µM.
